The record followed here is article PMC8138772 (The Journal of Biological Chemistry, 2021).

Series [1] addresses K562 αvβ6:mCherry cells (αvβ6 integrin) (Homo sapiens, UniProt P06756+P18564). The series is classed as binding.
For series [2], the system named is K562 cells. The class given is binding.
Series [3] can be described thus: in vitro. As to conditions: mouse, serum.
For series [4] the following is noted: mouse.
Series [5] is described as follows: normal mouse serum. The note with it: 37 °C.

Entries after “also recorded” stand apart in the source; their conditions may differ. [ ]: non-standard residue; d: D form. The star is where a group is joined. Biotin = O=C1N[C@H]2[C@H](CS[C@H]2CCCCC(=O)*)N1; Cit = NC(=O)NCCC[C@H](N)C(=O)O

K562 αvβ6:mCherry cells (αvβ6 integrin), sequence (P06756 31-889 limits assumed): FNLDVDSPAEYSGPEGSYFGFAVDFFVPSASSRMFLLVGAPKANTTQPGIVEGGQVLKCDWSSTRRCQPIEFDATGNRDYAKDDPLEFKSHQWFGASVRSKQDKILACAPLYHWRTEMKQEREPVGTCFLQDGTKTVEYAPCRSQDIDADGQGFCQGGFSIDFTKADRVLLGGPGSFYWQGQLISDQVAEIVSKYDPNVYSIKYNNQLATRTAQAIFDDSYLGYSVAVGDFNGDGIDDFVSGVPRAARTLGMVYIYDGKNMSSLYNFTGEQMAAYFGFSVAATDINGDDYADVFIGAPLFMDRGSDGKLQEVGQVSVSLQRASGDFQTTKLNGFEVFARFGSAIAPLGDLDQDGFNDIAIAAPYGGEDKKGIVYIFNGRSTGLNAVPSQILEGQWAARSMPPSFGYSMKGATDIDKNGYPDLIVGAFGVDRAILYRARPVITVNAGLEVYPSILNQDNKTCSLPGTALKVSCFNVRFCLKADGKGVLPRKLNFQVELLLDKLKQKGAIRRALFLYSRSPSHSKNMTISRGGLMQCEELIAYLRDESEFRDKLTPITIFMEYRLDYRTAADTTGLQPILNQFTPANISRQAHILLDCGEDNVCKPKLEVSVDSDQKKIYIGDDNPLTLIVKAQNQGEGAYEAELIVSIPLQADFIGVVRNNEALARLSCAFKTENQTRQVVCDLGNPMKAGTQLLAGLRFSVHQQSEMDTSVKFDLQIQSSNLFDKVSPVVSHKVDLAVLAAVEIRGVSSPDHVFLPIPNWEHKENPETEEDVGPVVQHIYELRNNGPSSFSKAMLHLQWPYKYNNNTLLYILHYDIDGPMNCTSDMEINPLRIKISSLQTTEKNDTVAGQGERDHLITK
K562 αvβ6:mCherry cells (αvβ6 integrin), sequence (P06756 891-1048 partner limits assumed): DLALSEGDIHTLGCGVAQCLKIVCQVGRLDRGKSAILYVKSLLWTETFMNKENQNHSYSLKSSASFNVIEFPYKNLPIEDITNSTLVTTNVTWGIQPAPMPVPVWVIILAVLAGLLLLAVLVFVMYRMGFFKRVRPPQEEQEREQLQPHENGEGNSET
K562 αvβ6:mCherry cells (αvβ6 integrin), sequence (P18564 22-788 limits assumed): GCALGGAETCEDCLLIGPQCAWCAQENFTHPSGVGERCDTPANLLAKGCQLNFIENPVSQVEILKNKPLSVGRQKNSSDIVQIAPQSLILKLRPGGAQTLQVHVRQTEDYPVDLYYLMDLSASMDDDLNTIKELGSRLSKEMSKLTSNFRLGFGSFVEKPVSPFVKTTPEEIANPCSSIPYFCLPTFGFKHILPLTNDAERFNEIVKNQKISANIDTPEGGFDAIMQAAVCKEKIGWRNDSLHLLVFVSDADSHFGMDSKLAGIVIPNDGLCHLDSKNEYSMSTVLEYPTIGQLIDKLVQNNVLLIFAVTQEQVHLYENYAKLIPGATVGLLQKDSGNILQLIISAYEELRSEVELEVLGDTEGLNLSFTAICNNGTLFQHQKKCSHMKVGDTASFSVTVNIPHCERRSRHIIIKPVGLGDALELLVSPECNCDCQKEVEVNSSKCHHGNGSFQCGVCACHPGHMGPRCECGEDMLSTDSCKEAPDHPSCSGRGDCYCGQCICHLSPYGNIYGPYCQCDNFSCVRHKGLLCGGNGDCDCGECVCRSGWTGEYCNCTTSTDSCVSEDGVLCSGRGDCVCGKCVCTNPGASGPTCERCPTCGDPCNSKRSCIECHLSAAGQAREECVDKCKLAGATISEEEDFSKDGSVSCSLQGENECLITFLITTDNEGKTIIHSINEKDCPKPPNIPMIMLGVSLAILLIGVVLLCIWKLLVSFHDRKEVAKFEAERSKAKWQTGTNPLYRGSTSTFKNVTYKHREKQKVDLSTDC

Consider `CC(C)C[C@@H]1NC(=O)[C@H](CC(=O)O)NC(=O)CNC(=O)[C@H](CCCNC(=N)N)NC(=O)[C@H](CC(C)C)NC(=O)[C@H](CC(N)=O)NC(=O)[C@@H]2CCCN2C(=O)[C@H](C(C)C)NC(=O)[C@H](C)NC(=O)[C@@H](NC(=O)CCCC[C@@H]2SC[C@@H]3NC(=O)N[C@@H]32)CSc2c(F)c(F)c(c(F)c2F)-c2c(F)c(F)c(c(F)c2F)SC[C@@H](C(=O)N[C@@H](CCCNC(=N)N)C(=O)N[C@H](C(=O)N[C@@H](CCCCN)C(N)=O)[C@@H](C)O)NC(=O)[C@H](C(C)C)NC(=O)[C@H](CCCCN)NC(=O)[C@H](CCC(N)=O)NC(=O)[C@H](C)NC(=O)[C@H](CC(C)C)NC(=O)[C@H](C(C)C)NC(=O)[C@H](CCC(N)=O)NC1=O` [C1C18 DFBP], for which the “binding to K562 αvβ6:mCherry cells (in words)” value in series [1] is “high affinity and specificity comparable to the original A20FMDV2 peptide”.

`CC(C)C[C@@H]1NC(=O)[C@H](CC(=O)O)NC(=O)CNC(=O)[C@H](CCCNC(=N)N)NC(=O)[C@H](CC(C)C)NC(=O)[C@H](CC(N)=O)NC(=O)[C@@H]2CCCN2C(=O)[C@H](C(C)C)NC(=O)[C@H](C)NC(=O)[C@@H](NC(=O)CCCC[C@@H]2SC[C@@H]3NC(=O)N[C@@H]32)CSc2c(F)c(F)c(c(F)c2F)-c2c(F)c(F)c(c(F)c2F)SC[C@@H](C(=O)N[C@H](C(=O)N[C@@H](CCCCN)C(N)=O)[C@@H](C)O)NC(=O)[C@H](C)NC(=O)[C@H](C(C)C)NC(=O)[C@H](CCCCN)NC(=O)[C@H](CCC(N)=O)NC(=O)[C@H](C)NC(=O)[C@H](CC(C)C)NC(=O)[C@H](C(C)C)NC(=O)[C@H](CCC(N)=O)NC1=O` [C1C19 DFBP]: in series [2], the “binding to parental K562 cells (in words)” value is on record as “significantly bound to parental K562 cells at high concentrations”.

For `CC(C)C[C@@H]1NC(=O)[C@H](CC(=O)O)NC(=O)CNC(=O)[C@H](CCCNC(=N)N)NC(=O)[C@H](CC(C)C)NC(=O)[C@H](CC(N)=O)NC(=O)[C@@H]2CCCN2C(=O)[C@H](C(C)C)NC(=O)[C@H](C)NC(=O)[C@@H](NC(=O)CCCC[C@@H]2SC[C@@H]3NC(=O)N[C@@H]32)CSc2c(F)c(F)c(c(F)c2F)-c2c(F)c(F)c(c(F)c2F)SC[C@@H](C(=O)N[C@@H](CCCCN)C(N)=O)NC(=O)[C@H](CCCNC(=N)N)NC(=O)[C@H](C)NC(=O)[C@H](C(C)C)NC(=O)[C@H](CCCCN)NC(=O)[C@H](CCC(N)=O)NC(=O)[C@H](C)NC(=O)[C@H](CC(C)C)NC(=O)[C@H](C(C)C)NC(=O)[C@H](CCC(N)=O)NC1=O` [C1C20 DFBP], the “binding to K562 αvβ6:mCherry cells (in words)” value in series [1] was “high affinity and specificity comparable to the original A20FMDV2 peptide”.

For orientation: half-life means how long it takes for the measured level to halve. The compound `CC(C)C[C@@H]1NC(=O)[C@H](CC(=O)O)NC(=O)CNC(=O)[C@H](CCCNC(=N)N)NC(=O)[C@H](CC(C)C)NC(=O)[C@H](CC(N)=O)NC(=O)[C@@H]2CCCN2C(=O)[C@H](C(C)C)NC(=O)[C@@H](NC(=O)[C@H](CC(N)=O)NC(=O)CCCC[C@@H]2SC[C@@H]3NC(=O)N[C@@H]32)CSc2c(F)c(F)c(c(F)c2F)-c2c(F)c(F)c(c(F)c2F)SC[C@@H](C(=O)N[C@@H](CCCNC(N)=O)C(=O)N[C@H](C(=O)N[C@@H](CCCCN)C(=O)N[C@H](C)C(N)=O)[C@@H](C)O)NC(=O)[C@H](C(C)C)NC(=O)[C@H](CCCCN)NC(=O)[C@H](CCC(N)=O)NC(=O)[C@H](C)NC(=O)[C@H](CC(C)C)NC(=O)[C@H](C(C)C)NC(=O)[C@H](CCC(N)=O)NC1=O` [C2C18 CitTKAD DFBP] gave a half-life in series [3] of 4.96 h.

In the case of `CC(C)C[C@@H]1NC(=O)[C@H](CC(=O)O)NC(=O)CNC(=O)[C@H](CCCNC(=N)N)NC(=O)[C@H](CC(C)C)NC(=O)[C@H](CC(N)=O)NC(=O)[C@@H]2CCCN2C(=O)[C@H](C(C)C)NC(=O)[C@@H](NC(=O)[C@H](CC(N)=O)NC(=O)CCCC[C@@H]2SC[C@@H]3NC(=O)N[C@@H]32)CSc2c(F)c(F)c(c(F)c2F)-c2c(F)c(F)c(c(F)c2F)SC[C@@H](C(=O)N[C@@H](CCCNC(=N)N)C(=O)N[C@H](C(=O)N[C@@H](CCCCN)C(N)=O)[C@@H](C)O)NC(=O)[C@H](C(C)C)NC(=O)[C@H](CCCCN)NC(=O)[C@H](CCC(N)=O)NC(=O)[C@H](C)NC(=O)[C@H](CC(C)C)NC(=O)[C@H](C(C)C)NC(=O)[C@H](CCC(N)=O)NC1=O` [C2C18 DFBP], in series [1], the “binding to K562 αvβ6:mCherry cells (in words)” value was “high affinity and specificity comparable to the original A20FMDV2 peptide”.

`CC(C)C[C@@H]1NC(=O)[C@H](CC(=O)O)NC(=O)CNC(=O)[C@H](CCCNC(=N)N)NC(=O)[C@H](CC(C)C)NC(=O)[C@H](CC(N)=O)NC(=O)[C@@H]2CCCN2C(=O)[C@H](C(C)C)NC(=O)[C@@H](NC(=O)[C@H](CC(N)=O)NC(=O)CCCC[C@@H]2SC[C@@H]3NC(=O)N[C@@H]32)CSc2c(F)c(F)c(c(F)c2F)-c2c(F)c(F)c(c(F)c2F)SC[C@@H](C(=O)N[C@H](CCCNC(=N)N)C(=O)N[C@H](C(=O)N[C@@H](CCCCN)C(=O)N[C@H](C)C(N)=O)[C@@H](C)O)NC(=O)[C@H](C(C)C)NC(=O)[C@H](CCCCN)NC(=O)[C@H](CCC(N)=O)NC(=O)[C@H](C)NC(=O)[C@H](CC(C)C)NC(=O)[C@H](C(C)C)NC(=O)[C@H](CCC(N)=O)NC1=O` [C2C18 RDTKAD DFBP]: in series [1], the “reduced binding fluorescence (maximal signal versus A20FMDV2, Fig. 3B)” value is reported as approximately 60%. In addition, the “t1/2 of intact peptide in serum” value in series [4] was 4.518 h.

Take `CC(C)C[C@@H]1NC(=O)[C@H](CC(=O)O)NC(=O)CNC(=O)[C@H](CCCNC(=N)N)NC(=O)[C@H](CC(C)C)NC(=O)[C@H](CC(N)=O)NC(=O)[C@@H]2CCCN2C(=O)[C@H](C(C)C)NC(=O)[C@@H](NC(=O)[C@H](CC(N)=O)NC(=O)CCCC[C@@H]2SC[C@@H]3NC(=O)N[C@@H]32)CSc2c(F)c(F)c(c(F)c2F)-c2c(F)c(F)c(c(F)c2F)SC[C@@H](C(=O)N[C@H](C(=O)N[C@@H](CCCCN)C(N)=O)[C@@H](C)O)NC(=O)[C@H](C)NC(=O)[C@H](C(C)C)NC(=O)[C@H](CCCCN)NC(=O)[C@H](CCC(N)=O)NC(=O)[C@H](C)NC(=O)[C@H](CC(C)C)NC(=O)[C@H](C(C)C)NC(=O)[C@H](CCC(N)=O)NC1=O` [C2C19 DFBP]: the “binding to parental K562 cells (in words)” value in series [2] was “significantly bound to parental K562 cells at high concentrations”.

As to “Biotin-CADVPNLRGDLQVLADQKVCRDTKDAD-NH2 (cysteine pairing not given here)”, in series [5] (up to 24 h), the cleaved bond result is recorded as “KD21-AD22, 24 h; also recorded: L6-Arg7, major” and the fragment found was 719: unidentified, 4 h.

“Biotin-CAVPNLRGDLQVLAQKVCRTK-NH2 (cysteine pairing not given here)”: the cleaved bond result in series [5] (up to 6 h) is “C18-arginine19”.

Turning to “Biotin-CAVPNLRGDLQVLAQKVCRTK-NH2 (cysteine pairing not given here) [C1C18 DFBP]”, the cleaved bond result in series [5] (up to 6 h) is “C18-arginine19, 2 h”.

“Biotin-NCVPNLRGDLQVLAQKVCRDTKAD-NH2 (cysteine pairing not given here)”: the cleaved bond entry in series [5] (up to 24 h) was “L6-Arg7, major, 8 h; also recorded: Arg7-G8, major, 8 h; also recorded: Asn1-C2, 24 h”.

Consider “Biotin-NCVPNLRGDLQVLAQKVCRTK-NH2 (cysteine pairing not given here)”, for which the cleaved bond entry in series [5] (up to 6 h) was “C18-arginine19, 2 h”.

For “Biotin-NCVPNLRGDLQVLAQKVC[Cit]TKAD-NH2 (cysteine pairing not given here)”, in series [5] (up to 24 h), the cleaved bond entry is “Thr20-K21, 12 h”.

For biotin-NCVPhNLRGDLQVLAQKVCRDTKAD-amide, the cleaved bond result in series [5] (up to 24 h) is “Asn1-C2, 24 h”.
